According to patent US20060040991A1, “Pharmaceutical presentation form for oral administration of a poorly soluble active compound, process for its preparation and kit” (Baxter International Inc., priority 2004, published 2006):

Tests used:
[1] = Solubility of indibulin in solvents; type: physicochemical
tubulin = conditions: cited from earlier work
[2] = Bioavailability on peroral administration in customary presentation forms; type: in vivo

With `O=C(Nc1ccncc1)C(=O)c1cn(Cc2ccc(Cl)cc2)c2ccccc12` [indibulin, N-(pyridin-4-yl)-[1-(4-chlorobenzyl)indol-3-yl]-glyoxylamide] the “solubility in various organic solvents” value ([1]; dimethylformamide, dimethyl sulfoxide and N-methylpyrrolidone) was “Adequate solubility”, the “solubility in highly concentrated organic acids” value ([1]; greater than 50% by weight, e.g. acetic acid or lactic acid) was “relatively good solvents” and the “solubility in hydrophilic solvents” value ([1]; water, methanol, ethanol and isopropanol) was “virtually insoluble”. The “in vitro and in vivo activity as a tubulin inhibitor” value (tubulin) was “significant”, the bioavailability ([2]; micronized active compound processed to oral presentation forms (suspensions, capsules or tablets)) was “comparatively low” and the bioavailability ([2]; perorally in customary presentation forms, e.g. powder, granule, tablet or capsule) was “low”.
